Where “and” joins values, the source holds several entries; their conditions need not be identical. Equal values may be shown once.
Legend:
[1] = system: WiDr human colorectal adenocarcinoma; experiment: WiDr xenograft model: growth of established WiDr human colorectal tumors in athymic nude mice (tumor volume/weight, % T/C, Fa, Combination Index); conditions: for Volume Decrease: vs control; for Individual Fractional Inhibition of Tumor Volume / Individual Tumor Volumes: individual animals
Procedure: Therapeutic agents, i.e. LTβR agonist and chemotherapeutic agents, were administered to athymic nude mice who had been implanted with WiDr tumor cells.
WiDr cells were obtained from the American Type Culture Collection (Manassas, Va.). Cells were grown in vitro in 90% Eagle's Minimum Essential Medium with 2 mM L-glutamine and Earle's Balanced Salt Solution (BSS) adjusted to contain 1.5 g/L sodium bicarbonate, 0.1 mM non-essential amino acids, and 1 mM sodium pyruvate plus 10% fetal bovine serum (FBS) without antibiotics (5% CO2). Bacterial cultures were performed on aliquots of the tumor homogenate preparation that was implanted into the mice to ensure that all cultures were negative for bacterial contamination at both 24 and 48 hours post implant.
When the tumors measured approximately 5 mm in length by 5 mm in width, mice were randomized to treatment and control groups. Body weight measurements were recorded twice-weekly beginning on Day 0.
Tumor measurements were determined using Vernier calipers. Tumor size measurements were recorded regularly according to the study, until the termination of the study. The formula to calculate volume for a prolate ellipsoid was used to estimate tumor volume (mm^3) from 2-dimensional tumor measurements: tumor volume (mm^3)=(length×width^2 [L×W^2])÷2. Assuming unit density, volume was converted to weight (i.e., 1 mm^3=1 mg). Tumor growth inhibition was assessed as % T/C, where T is the mean tumor weight of the treatment group and C is the mean tumor weight of the control group. […] Animals were sacrificed accordingly.
Statistical analysis of the tumor weight measurements was performed according to standard statistical methods. Mean, standard deviation (SD), and standard error of the mean (SEM) were determined for body weight and tumor weight for all dose groups at all assessments.
Antitumor efficacy was determined by comparing each treatment group's tumor volume with the control group's tumor volume. Mean tumor volume decrease was calculated as the difference between the control group and the treatment group mean tumor volume. The fractional inhibition of tumor volume, i.e., the fraction affected (Fa), was calculated by dividing the treatment group mean tumor volume decrease by the control group mean tumor volume. […] Further statistical analysis was performed accordingly.

[2] = system: KM-20L2 human colorectal adenocarcinoma; experiment: KM-20L2 xenograft model: growth of established KM-20L2 human colorectal tumors in athymic nude mice (tumor volume/weight, % T/C, Fa, Combination Index); type: in vivo; conditions: for Mean Fraction Affected (Fa): Camptosar 3 mg/kg alone; for Fraction affected (Fa): Camptosar 6.0 mg/kg given separately

`COc1cccc2c1C(=O)c1c(O)c3c(c(O)c1C2=O)C[C@@](O)(C(=O)CO)C[C@@H]3O[C@H]1C[C@H](N)[C@H](O)[C@H](C)O1` [Adriamycin, adriamycin, reference compound] was tested, and the “Fa (fractional inhibition of tumor volume), group mean” value ([1]; Adriamycin 4 mg/kg, day 35) was −0.204, the “Fa, individual animals” value ([1]; Adriamycin 4 mg/kg, day 35) was 0.033 and −0.408 and −1.391 and 0.530 and −0.660 and −0.137 and −0.379 and −0.389 and 0.251 and 0.512 and the “Tumor Volume, group mean” value ([1]; Adriamycin 4 mg/kg, day 35) was 1353.0. For the same compound, the “Tumor volume, individual animals” value ([1]; Adriamycin 4 mg/kg, day 35) was 1582.5 and 2687.5 and 528.1 and 1865.5 and 1277.8 and 1550.2 and 1560.9 and 842.1 and 548.3, the “Volume Decrease vs control, group mean” value ([1]; Adriamycin 4 mg/kg, day 35) was −229.0 and the “Fa (fractional inhibition of tumor volume), group mean” value ([1]; Adriamycin 6 mg/kg, day 35) was 0.089. For the same compound, the “Fa, individual animals” value ([1]; Adriamycin 6 mg/kg, day 35) was −0.295 and 0.095 and 0.380 and 0.462 and 0.198 and 0.209 and 0.057 and −0.060 and 0.522 and −0.674, the “Tumor Volume, group mean” value ([1]; Adriamycin 6 mg/kg, day 35) was 1023.5 and the “Tumor volume, individual animals” value ([1]; Adriamycin 6 mg/kg, day 35) was 1455.4 and 696.6 and 605.1 and 901.8 and 889.3 and 1191.2 and 537.2 and 1881.7. For the same compound, the “Volume Decrease vs control, group mean” value ([1]; Adriamycin 6 mg/kg, day 35) was 100.5, the “Activity by NCI criteria (% T/C at or below 42)” value ([1]; adriamycin 1 mg/kg to 6 mg/kg intraperitoneal, all tested doses) was “inactive” and the “Inhibition of tumor growth” value ([1]; adriamycin 6 mg/kg or 4 mg/kg, day 35, separate study) was “did not produce a significant inhibition”. The “Tumor growth vs vehicle control” value ([1]; adriamycin groups, day 42 (end of study)) was “no significant difference”.

With `CCc1c2c(nc3ccc(OC(=O)N4CCC(N5CCCCC5)CC4)cc13)-c1cc3c(c(=O)n1C2)COC(=O)[C@]3(O)CC` [Camptosar, irinotecan, reference compound] the “Fa (Fraction Affected), group mean” value ([1]; Camptosar 3 mg/kg, day 21) was 0.238, the “Fa, individual animals” value ([1]; Camptosar 3 mg/kg, day 21) was 0.336 and 0.314 and 0.078 and 0.269 and 0.245 and −0.068 and 0.513 and 0.208 and 0.093 and the “Fa (Fraction Affected), group mean” value ([1]; Camptosar 6 mg/kg, day 21) was 0.441. The “Fa, individual animals” value ([1]; Camptosar 6 mg/kg, day 21) was 0.302 and 0.473 and 0.521 and 0.544 (2×) and 0.590 and 0.110 and 0.614 and 0.277, the “Fa (Fraction Affected), group mean” value ([1]; Camptosar 10 mg/kg, day 21) was 0.476 and the “Fa, individual animals” value ([1]; Camptosar 10 mg/kg, day 21) was 0.464 and 0.347 and 0.575 and 0.375 and 0.573 and 0.163 and 0.516 and 0.684 and 0.648. The “Activity by NCI criteria (% T/C of 42 or less)” value ([1]; Camptosar […] to 10 mg/kg) was “inactive”, the “Median Effect Dose” value ([1]; Camptosar combined with huCBE11 (0.555:1), day 21) was 5.7 mg/kg and the “Median Effect Dose” value ([1]; Camptosar given separately, day 21) was 9.8 mg/kg. The “Activity by NCI criteria (% T/C at or below 42)” value ([2]; Camptosar) was “active”, the “Mean Fraction Affected (Fa)” value ([2]; Day 9) was 0.098 and the “Mean Fraction Affected (Fa)” value ([2]; Day 13) was 0.327. The “Mean Fraction Affected (Fa)” value ([2]; Day 20) was 0.593, the “Mean Fraction Affected (Fa)” value ([2]; Day 23) was 0.521 and the “Mean Fraction Affected (Fa)” value ([2]; Day 30) was 0.406. The “Inhibition of tumor growth vs saline control” value ([2]; Camptosar 6 mg/kg days 13 through 51, 3 mg/kg days 13 through 48, […] days 9 through 44, separate study) was “statistically significant inhibition of tumor growth”, the “Fraction affected (Fa)” value ([2]; Day 16) was 0.594 and the “Fraction affected (Fa)” value ([2]; Day 20) was 0.781. For the same compound, the “Fraction affected (Fa)” value ([2]; Day 23) was 0.759, the “Fraction affected (Fa)” value ([2]; Day 27) was 0.701 and the “Fraction affected (Fa)” value ([2]; Day 30) was 0.607. The “Fraction affected (Fa)” value ([2]; Day 34) was 0.564, the “Fraction affected (Fa)” value ([2]; Day 37) was 0.495 and the Tumor inhibition ([2]; Camptosar groups, end of day 55, separate study) was “no significant tumor inhibition”. The “Median Effect Dose” value ([2]; Combined (1:0.63 huCBE11:Camptosar), dose of the labelled agent in the combination, Day 13) was 6.7 mg/kg, the “Median Effect Dose” value ([2]; Combined (1:0.63 huCBE11:Camptosar), dose of the labelled agent in the combination, Day 16) was 1.6 mg/kg and the “Median Effect Dose” value ([2]; Combined (1:0.63 huCBE11:Camptosar), dose of the labelled agent in the combination, Day 20) was 0.6 mg/kg. For the same compound, the “Median Effect Dose” value ([2]; Combined (1:0.63 huCBE11:Camptosar), dose of the labelled agent in the combination, Day 23) was 0.7 mg/kg, the “Median Effect Dose” value ([2]; Combined (1:0.63 huCBE11:Camptosar), dose of the labelled agent in the combination, Day 27) was 1.0 mg/kg and the “Median Effect Dose” value ([2]; Combined (1:0.63 huCBE11:Camptosar), dose of the labelled agent in the combination, Day 30) was 1.1 mg/kg. The “Median Effect Dose” value ([2]; Combined (1:0.63 huCBE11:Camptosar), dose of the labelled agent in the combination, Day 34) was 1.1 mg/kg, the “Median Effect Dose” value ([2]; Combined (1:0.63 huCBE11:Camptosar), dose of the labelled agent in the combination, Day 37) was 1.0 mg/kg and the “Median Effect Dose” value ([2]; Combined (1:0.63 huCBE11:Camptosar), dose of the labelled agent in the combination, Day 41) was 1.0 mg/kg. For the same compound, the “Median Effect Dose” value ([2]; Given Separately, Day 13) was 12.4 mg/kg, the “Median Effect Dose” value ([2]; Given Separately, Day 16) was 4.0 mg/kg and the “Median Effect Dose” value ([2]; Given Separately, Day 20) was 2.3 mg/kg. For the same compound, the “Median Effect Dose” value ([2]; Given Separately, Day 23) was 2.7 mg/kg, the “Median Effect Dose” value ([2]; Given Separately, Day 27) was 3.2 mg/kg and the “Median Effect Dose” value ([2]; Given Separately, Day 30) was 4.2 mg/kg. For the same compound, the “Median Effect Dose” value ([2]; Given Separately, Day 34) was 4.7 mg/kg, the “Median Effect Dose” value ([2]; Given Separately, Day 37) was 6.0 mg/kg and the “Median Effect Dose” value ([2]; Given Separately, Day 41) was 7.3 mg/kg.

In the case of `N.N.[Cl][Pt][Cl]` [Cisplatin, cisplatin, reference compound], the “Fa (fractional inhibition of tumor volume), group mean” value ([1]; Cisplatin 1 mg/kg, day 44) is reported as 0.083, the “Fa, individual animals” value ([1]; Cisplatin 1 mg/kg, day 44) is reported as −0.478 and 0.344 and 0.025 and −0.016 and 0.140 and 0.102 and 0.222 and 0.128 and 0.098 and 0.268 and the “Tumor Volume, group mean” value ([1]; Cisplatin 1 mg/kg, day 44) is reported as 1300.4. The “Tumor volume, individual animals” value ([1]; Cisplatin 1 mg/kg, day 44) was 2096.4 and 930.1 and 1383.3 and 1440.7 and 1220.3 and 1274.3 and 1103.9 and 1236.7 and 1280.0 and 1038.3, the “Volume Decrease vs control, group mean” value ([1]; Cisplatin 1 mg/kg, day 44) was 118.2 and the “Fa (fractional inhibition of tumor volume), group mean” value ([1]; Cisplatin 2 mg/kg, day 44) was 0.055. For the same compound, the “Fa, individual animals” value ([1]; Cisplatin 2 mg/kg, day 44) was 0.082 and −0.061 and −0.036 and 0.618 and −0.290 and −0.523 and 0.241 and 0.054 and 0.316 and 0.151, the “Tumor Volume, group mean” value ([1]; Cisplatin 2 mg/kg, day 44) was 1340.1 and the “Tumor volume, individual animals” value ([1]; Cisplatin 2 mg/kg, day 44) was 1301.9 and 1505.3 and 1469.5 and 541.4 and 1829.8 and 2160.2 and 1076.4 and 1342.0 and 970.2 and 1204.2. For the same compound, the “Volume Decrease vs control, group mean” value ([1]; Cisplatin 2 mg/kg, day 44) was 78.5, the “Activity by NCI criteria (% T/C of 42 or less)” value ([1]; cisplatin 2 mg/kg to 0.25 mg/kg) was “inactive” and the “Tumor growth vs saline control” value ([1]; cisplatin 2 mg/kg, 1 mg/kg and 0.25 mg/kg, day 50) was “did not differ significantly”.

With `CC(=O)O[C@H]1C(=O)[C@@]2(C)[C@H]([C@H](OC(=O)c3ccccc3)[C@]3(O)C[C@H](OC(=O)[C@H](O)[C@@H](NC(=O)c4ccccc4)c4ccccc4)C(C)=C1C3(C)C)[C@]1(OC(C)=O)CO[C@@H]1C[C@@H]2O` [Taxol, reference compound] the “Fa (Fraction Affected)” value ([1]; Day 34, Taxol 12.5 mg/kg) was 0.171, the “Tumor Volume” value ([1]; Day 34, Taxol 12.5 mg/kg) was 1141.1 and the “Fa (Fraction Affected)” value ([1]; Day 34, Taxol 18.75 mg/kg) was 0.588. The “Tumor Volume” value ([1]; Day 34, Taxol 18.75 mg/kg) was 567.5, the “Volume Decrease” value ([1]; Day 34, Taxol 18.75 mg/kg) was 808.9 and the “Fa (Fraction Affected)” value ([1]; Day 34, Taxol 25 mg/kg) was 0.812. For the same compound, the “Tumor Volume” value ([1]; Day 34, Taxol 25 mg/kg) was 259.1, the “Volume Decrease” value ([1]; Day 34, Taxol 25 mg/kg) was 1117.3 and the “Median Effect Dose” value ([1]; Day 34, Taxol Given Separately) was 12.6 mg/kg. The “Median Effect Dose” value ([1]; Day 34, Taxol dose, Combined (0.333:1) with huCBE11) was 6.6 mg/kg, the “Individual Fractional Inhibition of Tumor Volume” value ([1]; Day 34, Taxol 6.25) was 0.231 and −0.036 and 0.421 and 0.375 and 0.469 and 0.157 and 0.552 and 0.284 and −0.217 and 0.168 and the “Individual Tumor Volumes” value ([1]; Day 34, Taxol 6.25) was 1058.1 and 1425.5 and 796.7 and 860.4 and 730.5 and 1159.9 and 616.0 and 985.1 and 1675.4 and 1144.5. The “Individual Fractional Inhibition of Tumor Volume” value ([1]; Day 34, Taxol 12.5) was 0.854 and 0.191 and 0.140 and 0.037 and −0.278 and 0.170 and 0.192 and −0.130 and 0.198 and 0.336, the “Individual Tumor Volumes” value ([1]; Day 34, Taxol 12.5) was 201.1 and 1113.1 and 1183.1 and 1325.2 and 1759.5 and 1143.0 and 1112.7 and 1554.9 and 1104.0 and 914.1 and the “Tumor growth vs vehicle control” value ([1]; Taxol 12.5 mg/kg, […] and 3.13 mg/kg) was “did not differ significantly”. For the same compound, the “% T/C” value ([1]; Taxol 18.75 mg/kg, Days 21 to 34) was “below 42%”, the “% T/C” value ([1]; Taxol 25 mg/kg, Days 13 to 39) was “below 42%” and the “% T/C” value ([1]; Taxol 25 mg/kg, Days 21 to 50) was “below 42%”. The “% T/C” value ([1]; Taxol 12.5, 6.25 and 3.13 mg/kg, throughout the study) was > 82%.
